Assay results reported in PubChem BioAssay (NCI).
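Method: 48-hour compound exposure of cells in 96-well plates, five concentrations, linear interpolation of endpoints. The concentration for 50% growth inhibition is given as GI50. TGI denotes the concentration required for complete inhibition of growth.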

What was measured:
Assay in all cases: NCI-60 cell line screen, 48 h
786-0 renal = tested on: 786-0 renal
A498 renal = tested on: A498 renal
A549 NSCLC = tested on: A549 NSCLC
ACHN renal = tested on: ACHN renal
BT-549 breast = tested on: BT-549 breast
CAKI-1 renal = tested on: CAKI-1 renal
CCRF-CEM leukemia = tested on: CCRF-CEM leukemia
COLO 205 colon = tested on: COLO 205 colon
DU-145 prostate = tested on: DU-145 prostate
EKVX NSCLC = tested on: EKVX NSCLC
HCC-2998 colon = tested on: HCC-2998 colon
HCT-116 colon = tested on: HCT-116 colon
HCT-15 colon = tested on: HCT-15 colon
HL-60(TB) leukemia = tested on: HL-60(TB) leukemia
HOP-62 NSCLC = tested on: HOP-62 NSCLC
HOP-92 NSCLC = tested on: HOP-92 NSCLC
HS 578T breast = tested on: HS 578T breast
HT29 colon = tested on: HT29 colon
IGROV1 ovarian = tested on: IGROV1 ovarian
K-562 leukemia = tested on: K-562 leukemia
KM12 colon = tested on: KM12 colon
LOX IMVI melanoma = tested on: LOX IMVI melanoma
M14 melanoma = tested on: M14 melanoma
MALME-3M melanoma = tested on: MALME-3M melanoma
MCF7 breast = tested on: MCF7 breast
MDA-MB-231 breast = tested on: MDA-MB-231 breast
MDA-MB-435 = tested on: MDA-MB-435
MOLT-4 leukemia = tested on: MOLT-4 leukemia
NCI-H226 lung = tested on: NCI-H226 lung
NCI-H23 lung = tested on: NCI-H23 lung
NCI-H460 lung = tested on: NCI-H460 lung
NCI-H522 lung = tested on: NCI-H522 lung
NCI/ADR-RES ovarian = tested on: NCI/ADR-RES ovarian
OVCAR-3 ovarian = tested on: OVCAR-3 ovarian
OVCAR-4 ovarian = tested on: OVCAR-4 ovarian
OVCAR-5 ovarian = tested on: OVCAR-5 ovarian
OVCAR-8 ovarian = tested on: OVCAR-8 ovarian
PC-3 prostate = tested on: PC-3 prostate
RPMI-8226 leukemia = tested on: RPMI-8226 leukemia
RXF 393 renal = tested on: RXF 393 renal
SF-268 CNS = tested on: SF-268 CNS
SF-295 CNS = tested on: SF-295 CNS
SF-539 CNS = tested on: SF-539 CNS
SK-MEL-2 melanoma = tested on: SK-MEL-2 melanoma
SK-MEL-28 melanoma = tested on: SK-MEL-28 melanoma
SK-MEL-5 melanoma = tested on: SK-MEL-5 melanoma
SK-OV-3 ovarian = tested on: SK-OV-3 ovarian
SN12C renal = tested on: SN12C renal
SNB-19 CNS = tested on: SNB-19 CNS
SNB-75 CNS = tested on: SNB-75 CNS
SR leukemia = tested on: SR leukemia
SW-620 colon = tested on: SW-620 colon
T-47D breast = tested on: T-47D breast
TK-10 renal = tested on: TK-10 renal
U251 CNS = tested on: U251 CNS
UACC-257 melanoma = tested on: UACC-257 melanoma
UACC-62 melanoma = tested on: UACC-62 melanoma
UO-31 renal = tested on: UO-31 renal

In the case of Cc1cc(-c2ncc(-c3cccnc3)cc2/C=C/c2ccccc2)cnc1-c1cccnc1, the GI50 (786-0 renal) is reported as 6.05 µM, the TGI (786-0 renal) is reported as greater than 100 µM and the GI50 (A498 renal) is reported as 2.31 µM. It also gave a TGI (A498 renal) greater than 30.9 µM, a GI50 (A549 NSCLC) of 3.92 µM and a TGI (A549 NSCLC) greater than 100 µM. It also gave a GI50 (ACHN renal) of 3.91 µM, a TGI (ACHN renal) greater than 100 µM and a GI50 (BT-549 breast) of 3.05 µM. For the same compound, the TGI (BT-549 breast) was 20.8 µM, the GI50 (CAKI-1 renal) was 4.25 µM and the TGI (CAKI-1 renal) was greater than 100 µM. The GI50 (CCRF-CEM leukemia) was 1.17 µM, the TGI (CCRF-CEM leukemia) was 7.76 µM and the TGI (COLO 205 colon) was greater than 100 µM. The GI50 (DU-145 prostate) was 3.35 µM, the TGI (DU-145 prostate) was greater than 100 µM and the GI50 (EKVX NSCLC) was 3.39 µM. For the same compound, the TGI (EKVX NSCLC) was greater than 100 µM, the GI50 (HCC-2998 colon) was greater than 25.4 µM and the TGI (HCC-2998 colon) was greater than 100 µM. It also gave a GI50 (HCT-116 colon) of 4.22 µM, a TGI (HCT-116 colon) greater than 100 µM and a GI50 (HCT-15 colon) of 2.95 µM. The TGI (HCT-15 colon) was greater than 100 µM, the GI50 (HL-60(TB) leukemia) was 2.35 µM and the TGI (HL-60(TB) leukemia) was 12.3 µM. It also gave a GI50 (HOP-62 NSCLC) of 4.45 µM, a TGI (HOP-62 NSCLC) of 97.5 µM and a GI50 (HOP-92 NSCLC) of 2.96 µM. It also gave a TGI (HOP-92 NSCLC) greater than 26 µM, a GI50 (HS 578T breast) of 3.39 µM and a TGI (HS 578T breast) greater than 100 µM. It also gave a GI50 (HT29 colon) of 3.52 µM, a TGI (HT29 colon) greater than 100 µM and a GI50 (IGROV1 ovarian) of 5.39 µM. For the same compound, the TGI (IGROV1 ovarian) was greater than 100 µM, the GI50 (K-562 leukemia) was 3.28 µM and the TGI (K-562 leukemia) was greater than 100 µM. It also gave a GI50 (KM12 colon) of 3.3 µM, a TGI (KM12 colon) greater than 100 µM and a GI50 (LOX IMVI melanoma) of 3.12 µM. It also gave a TGI (LOX IMVI melanoma) of 19.7 µM, a GI50 (M14 melanoma) of 4.24 µM and a TGI (M14 melanoma) greater than 100 µM. For the same compound, the GI50 (MALME-3M melanoma) was 2.81 µM, the TGI (MALME-3M melanoma) was 16.9 µM and the GI50 (MCF7 breast) was 3.02 µM. It also gave a TGI (MCF7 breast) greater than 100 µM, a GI50 (MDA-MB-231 breast) of 4.76 µM and a TGI (MDA-MB-231 breast) greater than 100 µM. The TGI (MDA-MB-435) was greater than 100 µM, the GI50 (MOLT-4 leukemia) was 1.47 µM and the TGI (MOLT-4 leukemia) was 5.99 µM. The GI50 (NCI-H226 lung) was 2.62 µM, the TGI (NCI-H226 lung) was 7.61 µM and the GI50 (NCI-H23 lung) was 4.59 µM. The TGI (NCI-H23 lung) was greater than 100 µM, the GI50 (NCI-H460 lung) was 2.28 µM and the TGI (NCI-H460 lung) was 5.27 µM. It also gave a GI50 (NCI-H522 lung) of 3.01 µM, a TGI (NCI-H522 lung) of 14.9 µM and a GI50 (NCI/ADR-RES ovarian) of 3.62 µM. It also gave a TGI (NCI/ADR-RES ovarian) greater than 100 µM, a GI50 (OVCAR-3 ovarian) of 3.48 µM and a TGI (OVCAR-3 ovarian) of 37.7 µM. For the same compound, the GI50 (OVCAR-4 ovarian) was greater than 21.1 µM, the TGI (OVCAR-4 ovarian) was greater than 100 µM and the GI50 (OVCAR-5 ovarian) was greater than 72.6 µM. The TGI (OVCAR-5 ovarian) was greater than 100 µM, the GI50 (OVCAR-8 ovarian) was 3.81 µM and the TGI (OVCAR-8 ovarian) was greater than 100 µM. It also gave a GI50 (PC-3 prostate) of 3.21 µM, a TGI (PC-3 prostate) greater than 100 µM and a GI50 (RPMI-8226 leukemia) of 2.53 µM. For the same compound, the TGI (RPMI-8226 leukemia) was 16.7 µM, the GI50 (RXF 393 renal) was 4.13 µM and the TGI (RXF 393 renal) was 75.3 µM. It also gave a GI50 (SF-268 CNS) of 5.81 µM, a TGI (SF-268 CNS) greater than 100 µM and a GI50 (SF-295 CNS) of 5.62 µM. The TGI (SF-295 CNS) was 52.1 µM, the GI50 (SF-539 CNS) was 11.5 µM and the TGI (SF-539 CNS) was greater than 33.2 µM. The GI50 (SK-MEL-2 melanoma) was 4.93 µM, the TGI (SK-MEL-2 melanoma) was greater than 66.9 µM and the GI50 (SK-MEL-28 melanoma) was greater than 20.2 µM. The TGI (SK-MEL-28 melanoma) was greater than 100 µM, the GI50 (SK-MEL-5 melanoma) was 1.46 µM and the TGI (SK-MEL-5 melanoma) was 3.02 µM. It also gave a GI50 (SK-OV-3 ovarian) of 19.1 µM, a TGI (SK-OV-3 ovarian) greater than 100 µM and a GI50 (SN12C renal) of 3.59 µM. The TGI (SN12C renal) was greater than 100 µM, the GI50 (SNB-19 CNS) was 5.32 µM and the TGI (SNB-19 CNS) was greater than 100 µM. For the same compound, the GI50 (SNB-75 CNS) was 5.23 µM, the TGI (SNB-75 CNS) was greater than 63.4 µM and the GI50 (SR leukemia) was 2.69 µM. It also gave a TGI (SR leukemia) greater than 28.5 µM, a GI50 (SW-620 colon) of 4.41 µM and a TGI (SW-620 colon) greater than 100 µM. The GI50 (T-47D breast) was 2.4 µM, the TGI (T-47D breast) was greater than 30.8 µM and the TGI (TK-10 renal) was greater than 100 µM. The GI50 (U251 CNS) was 4.54 µM, the TGI (U251 CNS) was greater than 100 µM and the GI50 (UACC-257 melanoma) was 5.08 µM. The TGI (UACC-257 melanoma) was greater than 100 µM, the GI50 (UACC-62 melanoma) was 3.91 µM and the TGI (UACC-62 melanoma) was greater than 83.9 µM. For the same compound, the GI50 (UO-31 renal) was 2.27 µM and the TGI (UO-31 renal) was 9.04 µM.
